Results from ChEMBL document CHEMBL4346683 (Eur J Med Chem, 2019).
Converted amounts (≈) assume the structure as drawn. The source made the active and inactive calls. No cut-off for these calls is given here.

Columns and labels:
Escherichia coli = experiment: Antibacterial activity against Escherichia coli ATCC 25922 assessed as inhibition of bacterial growth incubated for 24 hrs by TTC double broth dilution method; assay type: functional; conditions: ATCC 25922, 24 h
[1] = Induction of hemolysis in human erythrocytes assessed as hemoglobin release incubated for 3 hrs by spectrophotometric analysis; assay type: cell-based; conditions: erythrocyte
[2] = Cytotoxicity against human 293T cells assessed as reduction in cell viability incubated for 24 hrs by MTT assay; assay type: cell-based; conditions: HEK-293T cells
Staphylococcus aureus [3] = experiment: Antibacterial activity against Staphylococcus aureus ATCC 25923 assessed as inhibition of bacterial growth incubated for 24 hrs by TTC double broth dilution method; assay type: functional; conditions: ATCC 25923, 24 h
Pseudomonas aeruginosa = experiment: Antibacterial activity against Pseudomonas aeruginosa ATCC 27853 assessed as inhibition of bacterial growth incubated for 24 hrs by TTC double broth dilution method; assay type: functional; conditions: ATCC 27853, 24 h
[4] = system: Xanthomonas oryzae pv. oryzae; experiment: Antibacterial activity against wild type Xanthomonas oryzae pv. oryzae KACC10331 expressing FabH assessed as reduction in bacterial growth; assay type: functional
Bacillus subtilis = experiment: Antibacterial activity against Bacillus subtilis ATCC 530 assessed as inhibition of bacterial growth incubated for 24 hrs by TTC double broth dilution method; assay type: functional; conditions: ATCC 530, 24 h
[5] = biological target: T1, 3-oxoacyl-[acyl-carrier-protein] synthase 3 (Escherichia coli, UniProt C3TDZ2); experiment: Inhibition of Escherichia coli FabH in presence of radiolabelled substrates and acetyl-coA by enzyme coupled FabD/FabH assay system
T1 sequence (C3TDZ2 whole entry): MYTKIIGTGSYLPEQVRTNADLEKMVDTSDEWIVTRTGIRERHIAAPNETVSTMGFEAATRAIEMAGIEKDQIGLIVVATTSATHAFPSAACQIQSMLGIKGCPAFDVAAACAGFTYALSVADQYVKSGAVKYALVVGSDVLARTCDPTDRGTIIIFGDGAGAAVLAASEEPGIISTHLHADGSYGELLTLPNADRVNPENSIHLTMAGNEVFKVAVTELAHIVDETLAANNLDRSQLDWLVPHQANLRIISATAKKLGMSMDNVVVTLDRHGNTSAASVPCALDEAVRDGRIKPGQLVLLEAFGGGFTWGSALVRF

[6] = system: Xanthomonas oryzae pv. oryzae; experiment: Antibacterial activity against wild type Xanthomonas oryzae pv. oryzae KACC10331 expressing FabH assessed as reduction in bacterial growth at 5 ug/ml; assay type: functional, organism-based
Enterococcus faecium = experiment: Antibacterial activity against Enterococcus faecium; assay type: functional
Streptococcus pneumoniae = experiment: Antibacterial activity against Streptococcus pneumoniae; assay type: functional
Staphylococcus aureus [7] = experiment: Antibacterial activity against Staphylococcus aureus; assay type: functional
[8] = Inhibition of Streptococcus pyogenes FabH
[9] = Inhibition of Enterococcus faecalis FabH

Compound	MIC (Escherichia coli)	LC30 [1]	CC50 at 24 h [2]	MIC (Staphylococcus aureus [3])	MIC (Pseudomonas aeruginosa)	MIC [4]	MIC (Bacillus subtilis)	IC50 [5]	inhibition [6]	MIC (Enterococcus faecium)	MIC (Streptococcus pneumoniae)	MIC (Staphylococcus aureus [7])	IC50 [8]	IC50 [9]
Cc1ccc(C(=O)n2c(-c3cn(-c4ccccc4)nc3-c3ccc(F)cc3)nc3ccccc32)cn1	1.95 µg/mL (≈ 4.12 µM)	> 10000 µg/mL	137 µM	62.5 µg/mL (≈ 132 µM)	62.5 µg/mL (≈ 132 µM)	15.6 µg/mL (≈ 33 µM)	0.98 µg/mL (≈ 2.07 µM)	4.02 µM	–	–	–	–	–	–
Cc1cncc(C(=O)n2c(-c3cn(-c4ccccc4)nc3-c3ccc(C(F)(F)F)cc3)nc3ccccc32)c1	62.5 µg/mL (≈ 119 µM)	> 10000 µg/mL	123 µM	62.5 µg/mL (≈ 119 µM)	62.5 µg/mL (≈ 119 µM)	7.82 µg/mL (≈ 14.9 µM)	0.98 µg/mL (≈ 1.87 µM)	22.9 µM	Active	–	–	–	–	–
Cc1ccc(-c2nn(-c3ccccc3)cc2-c2nc3ccccc3n2C(=O)c2cccnc2)cc1	62.5 µg/mL (≈ 137 µM)	> 10000 µg/mL	189 µM	31.2 µg/mL (≈ 68.6 µM)	62.5 µg/mL (≈ 137 µM)	–	0.98 µg/mL (≈ 2.15 µM)	18.3 µM	–	–	–	–	–	–
C[C@]12C[C@@]34C=CC(=O)[C@@](C)(CCC(=O)Nc5c(O)ccc(C(=O)O)c5O)[C@@H]3[C@H](C[C@@H]1C4)O2	–	–	–	–	–	–	–	–	–	0.5 to 1 µg/mL (≈ 1.13 to 2.27 µM)	0.5 to 1 µg/mL (≈ 1.13 to 2.27 µM)	0.5 to 1 µg/mL (≈ 1.13 to 2.27 µM)	–	–
O=C(Nc1cccc(O)c1C(=O)O)c1ccc(-c2ccccc2)c(Oc2ccccc2)c1	–	–	–	–	–	–	–	–	–	–	–	–	0.004 µM	0.004 µM
Cc1ccc(-c2nn(-c3ccccc3)cc2-c2nc3ccccc3n2C(=O)c2cccc(C)c2)cc1	62.5 µg/mL (≈ 133 µM)	> 10000 µg/mL	195 µM	> 62.5 µg/mL	62.5 µg/mL (≈ 133 µM)	–	31.2 µg/mL (≈ 66.7 µM)	33.2 µM	–	–	–	–	–	–
O=C(c1ccccc1)n1c(-c2cn(-c3ccccc3)nc2-c2ccc(C(F)(F)F)cc2)nc2ccccc21	62.5 µg/mL (≈ 123 µM)	> 10000 µg/mL	168 µM	> 62.5 µg/mL	62.5 µg/mL (≈ 123 µM)	–	15.6 µg/mL (≈ 30.7 µM)	25.7 µM	–	–	–	–	–	–
Cc1ccc(-c2nn(-c3ccccc3)cc2-c2nc3ccccc3n2C(=O)c2ccccc2C)cc1	62.5 µg/mL (≈ 133 µM)	> 10000 µg/mL	176 µM	> 62.5 µg/mL	> 62.5 µg/mL	–	62.5 µg/mL (≈ 133 µM)	35.4 µM	–	–	–	–	–	–
Cc1ccc(C(=O)n2c(-c3cn(-c4ccccc4)nc3-c3ccc(C(F)(F)F)cc3)nc3ccccc32)cn1	1.95 µg/mL (≈ 3.72 µM)	> 10000 µg/mL	153 µM	62.5 µg/mL (≈ 119 µM)	62.5 µg/mL (≈ 119 µM)	–	0.49 µg/mL (≈ 0.936 µM)	2.05 µM	–	–	–	–	–	–
Cc1ccccc1C(=O)n1c(-c2cn(-c3ccccc3)nc2-c2ccc(F)cc2)nc2ccccc21	> 62.5 µg/mL	> 10000 µg/mL	189 µM	> 62.5 µg/mL	> 62.5 µg/mL	–	62.5 µg/mL (≈ 132 µM)	37.2 µM	–	–	–	–	–	–
Cc1ccc(-c2nn(-c3ccccc3)cc2-c2nc3ccccc3n2C(=O)c2ccc(Cl)cc2)cc1	62.5 µg/mL (≈ 128 µM)	> 10000 µg/mL	216 µM	> 62.5 µg/mL	> 62.5 µg/mL	–	62.5 µg/mL (≈ 128 µM)	38.2 µM	–	–	–	–	–	–
Cc1ccc(-c2nn(-c3ccccc3)cc2-c2nc3ccccc3n2C(=O)c2cncc(C)c2)cc1	62.5 µg/mL (≈ 133 µM)	> 10000 µg/mL	155 µM	62.5 µg/mL (≈ 133 µM)	62.5 µg/mL (≈ 133 µM)	–	7.8 µg/mL (≈ 16.6 µM)	9.56 µM	–	–	–	–	–	–
Cc1ccccc1C(=O)n1c(-c2cn(-c3ccccc3)nc2-c2ccc(C(F)(F)F)cc2)nc2ccccc21	> 62.5 µg/mL	> 10000 µg/mL	179 µM	> 62.5 µg/mL	> 62.5 µg/mL	–	62.5 µg/mL (≈ 120 µM)	36.5 µM	–	–	–	–	–	–
Cc1ccc(C(=O)n2c(-c3cn(-c4ccccc4)nc3-c3ccc(C(F)(F)F)cc3)nc3ccccc32)cc1	62.5 µg/mL (≈ 120 µM)	> 10000 µg/mL	169 µM	> 62.5 µg/mL	> 62.5 µg/mL	–	3.9 µg/mL (≈ 7.46 µM)	31.8 µM	–	–	–	–	–	–
Cc1cccc(C(=O)n2c(-c3cn(-c4ccccc4)nc3-c3ccc(F)cc3)nc3ccccc32)c1	62.5 µg/mL (≈ 132 µM)	> 10000 µg/mL	148 µM	62.5 µg/mL (≈ 132 µM)	31.2 µg/mL (≈ 66.1 µM)	–	31.2 µg/mL (≈ 66.1 µM)	34.1 µM	–	–	–	–	–	–
O=C(c1ccncc1)n1c(-c2cn(-c3ccccc3)nc2-c2ccc(F)cc2)nc2ccccc21	> 62.5 µg/mL	> 10000 µg/mL	151 µM	62.5 µg/mL (≈ 136 µM)	62.5 µg/mL (≈ 136 µM)	–	31.2 µg/mL (≈ 68 µM)	33.9 µM	–	–	–	–	–	–
Cc1cccc(C(=O)n2c(-c3cn(-c4ccccc4)nc3-c3ccc(C(F)(F)F)cc3)nc3ccccc32)c1	62.5 µg/mL (≈ 120 µM)	> 10000 µg/mL	154 µM	> 62.5 µg/mL	31.2 µg/mL (≈ 59.8 µM)	–	31.2 µg/mL (≈ 59.8 µM)	34.9 µM	–	–	–	–	–	–
O=C(c1ccc(Cl)cc1)n1c(-c2cn(-c3ccccc3)nc2-c2ccc(C(F)(F)F)cc2)nc2ccccc21	62.5 µg/mL (≈ 115 µM)	> 10000 µg/mL	181 µM	> 62.5 µg/mL	31.2 µg/mL (≈ 57.6 µM)	–	62.5 µg/mL (≈ 115 µM)	39.8 µM	–	–	–	–	–	–
O=C(c1ccccc1)n1c(-c2cn(-c3ccccc3)nc2-c2ccc(F)cc2)nc2ccccc21	62.5 µg/mL (≈ 136 µM)	> 10000 µg/mL	180 µM	> 62.5 µg/mL	62.5 µg/mL (≈ 136 µM)	–	7.8 µg/mL (≈ 17 µM)	22.1 µM	–	–	–	–	–	–
Cc1ccc(-c2nn(-c3ccccc3)cc2-c2nc3ccccc3n2C(=O)c2ccc(C)nc2)cc1	62.5 µg/mL (≈ 133 µM)	> 10000 µg/mL	145 µM	62.5 µg/mL (≈ 133 µM)	62.5 µg/mL (≈ 133 µM)	15.6 µg/mL (≈ 33.3 µM)	0.98 µg/mL (≈ 2.09 µM)	16.9 µM	–	–	–	–	–	–
O=C(c1cccnc1)n1c(-c2cn(-c3ccccc3)nc2-c2ccc(C(F)(F)F)cc2)nc2ccccc21	62.5 µg/mL (≈ 123 µM)	> 10000 µg/mL	158 µM	62.5 µg/mL (≈ 123 µM)	62.5 µg/mL (≈ 123 µM)	15.6 µg/mL (≈ 30.7 µM)	1.95 µg/mL (≈ 3.83 µM)	15.2 µM	–	–	–	–	–	–
O=C(c1ccncc1)n1c(-c2cn(-c3ccccc3)nc2-c2ccc(C(F)(F)F)cc2)nc2ccccc21	> 62.5 µg/mL	> 10000 µg/mL	135 µM	62.5 µg/mL (≈ 123 µM)	62.5 µg/mL (≈ 123 µM)	–	7.8 µg/mL (≈ 15.3 µM)	32.7 µM	–	–	–	–	–	–
Cc1ccc(C(=O)n2c(-c3cn(-c4ccccc4)nc3-c3ccc(F)cc3)nc3ccccc32)cc1	62.5 µg/mL (≈ 132 µM)	> 10000 µg/mL	178 µM	> 62.5 µg/mL	> 62.5 µg/mL	–	0.98 µg/mL (≈ 2.07 µM)	30.3 µM	–	–	–	–	–	–
Cc1ccc(-c2nn(-c3ccccc3)cc2-c2nc3ccccc3n2C(=O)c2ccccc2)cc1	> 62.5 µg/mL	> 10000 µg/mL	204 µM	> 62.5 µg/mL	62.5 µg/mL (≈ 138 µM)	–	31.2 µg/mL (≈ 68.8 µM)	28.2 µM	–	–	–	–	–	–
Cc1ccc(-c2nn(-c3ccccc3)cc2-c2nc3ccccc3n2C(=O)c2ccncc2)cc1	> 62.5 µg/mL	> 10000 µg/mL	154 µM	62.5 µg/mL (≈ 137 µM)	62.5 µg/mL (≈ 137 µM)	–	31.2 µg/mL (≈ 68.6 µM)	30.3 µM	–	–	–	–	–	–
Cc1cncc(C(=O)n2c(-c3cn(-c4ccccc4)nc3-c3ccc(F)cc3)nc3ccccc32)c1	62.5 µg/mL (≈ 132 µM)	> 10000 µg/mL	119 µM	62.5 µg/mL (≈ 132 µM)	62.5 µg/mL (≈ 132 µM)	–	15.6 µg/mL (≈ 32.9 µM)	22.1 µM	–	–	–	–	–	–
Cc1ccc(C(=O)n2c(-c3cn(-c4ccccc4)nc3-c3ccc(C)cc3)nc3ccccc32)cc1	3.9 µg/mL (≈ 8.32 µM)	> 10000 µg/mL	176 µM	> 62.5 µg/mL	31.2 µg/mL (≈ 66.7 µM)	–	0.98 µg/mL (≈ 2.09 µM)	3.06 µM	–	–	–	–	–	–
NC[C@H]1O[C@H](O[C@H]2[C@H](O)[C@@H](O[C@H]3O[C@H](CO)[C@@H](O)[C@H](N)[C@H]3O)[C@H](N)C[C@@H]2N)[C@H](N)[C@@H](O)[C@@H]1O [BEKANAMYCIN]	1.95 µg/mL (≈ 4.03 µM)	–	–	0.98 µg/mL (≈ 2.03 µM)	3.9 µg/mL (≈ 8.07 µM)	–	0.98 µg/mL (≈ 2.03 µM)	–	–	–	–	–	–	–
O=C(c1ccc(Cl)cc1)n1c(-c2cn(-c3ccccc3)nc2-c2ccc(F)cc2)nc2ccccc21	62.5 µg/mL (≈ 127 µM)	> 10000 µg/mL	179 µM	> 62.5 µg/mL	> 62.5 µg/mL	–	62.5 µg/mL (≈ 127 µM)	36.1 µM	–	–	–	–	–	–
O=C(c1cccnc1)n1c(-c2cn(-c3ccccc3)nc2-c2ccc(F)cc2)nc2ccccc21	0.98 µg/mL (≈ 2.13 µM)	> 10000 µg/mL	216 µM	0.98 µg/mL (≈ 2.13 µM)	0.49 µg/mL (≈ 1.07 µM)	0.49 µg/mL (≈ 1.07 µM)	0.98 µg/mL (≈ 2.13 µM)	1.22 µM	Active	–	–	–	–	–
